According to US20220218833A1, “PLATELET-FACILITATED DELIVERY OF THERAPEUTIC COMPOUNDS” (CSTS Health Care Inc., priority 2019, published 2022):
“Also recorded” adds a separate entry of the source. Where no end group is shown, it is not given here.

Experiments:
[1] = Affinity chromatography of peptides; assay type: binding; details: FIG. 4
Description: Additionally, the binding affinities for the two illustrative GAG-binding peptides and the CFL to heparan sulfate (HS) was determined using affinity chromatography.

[2] = system: alpha granules of platelets; test: Confocal microscopy of Alexa647-labeled peptides with PF4 alpha granule marker; assay type: cell-based; details: for loading of attached cargo into alpha granules of platelets (Alexa647 intensities for each ROI): ROIs selected on PF4 intensity, FIG. 2B
Description: To confirm that the Alexa647-labeled GAG-binding peptides were loaded into alpha granules of platelets, confocal microscopy was used. The platelets that were centrifuged in the experiments of FIG. 1A and FIG. 1B, were fixed in 2% paraformaldehyde and settled onto glass coverslips. After permeabilization, immunofluorescence staining was performed against PF4, which is a marker for alpha granules of platelets. Platelets were stained with Alexa568-secondary antibody. Images were collected through a Nikon-A1 laser-scanning microscope equipped with a 60× oil objective lens.
FIG. 2A are representative images with PF4 staining shown in red (left column) and the Alexa647 signal (from the free Alexa647, Alexa647-labeled GAG-binding peptide, or Alexa647-labeled CFL; middle column) shown in purple. Images were only adjusted for brightness and contrast for display. n>5 images were acquired for each experiment and regions of interest (ROIs) were selected based on PF4 intensity.
The Alexa647 intensities for each ROI were measured using ImageJ and plotted in box and whisker graph using Prism 8.

isolated platelets = test: Platelet loading of Alexa647-labeled peptides, decrease in supernatant fluorescence; assay type: cell-based; details: for absorbance of supernatant, complete versus loaded measurements (loading into platelets): Alexa647-labeled peptides co-incubated with isolated platelets at 37° C. for one hour, FIG. 1A; for loading of attached cargo into platelets, loaded condition normalized to complete condition: Alexa647 as cargo, FIG. 1B
Description: Alexa647-labeled GAG-binding peptides, identified in FIG. 1A and FIG. 1B as PAL1 and PAL2 and an Alexa647-labeled control peptide (a charge-free ligand (CFL) which served as a negative control), were tested for their binding affinity for glycosaminoglycans, such as chondroitin sulfate, and their abilities to enter platelets.
Alexa647-labeled peptides or Alexa647 alone were co-incubated with isolated platelets at 37° C. for one hour to allow for platelet loading. The respective platelet-loading ability was indicated by a decrease in fluorescence in supernatant following the incubation. For controls, identical experiments were performed without the incubation period (noted as “complete” in the figure). Platelets following co-incubation were then centrifuged at 800 g for 10-minutes to separate platelets from supernatant (noted as “loaded” in the figure).
FIG. 1B represents the data in FIG. 1A normalized for each peptide experiment, i.e., normalization of a loaded condition to its complete condition.

platelets = test: Cargo loading into platelets contacted with a non-specific GAG inhibitor; assay type: cell-based; details: platelets contacted with the inhibitor
Source text: The present invention is based, in part, on the discovery that cargo can be loaded in alpha granules and that this loading is not receptor-mediated. Instead, cargo loading into platelets, and specifically into their alpha granules, relies on the binding to glycosaminoglycans (GAG) in the alpha granules of the platelets.

Compound	binding to heparan sulfate (HS) [1]	loading of attached cargo into alpha granules of platelets (Alexa647 intensities for each ROI) [2]	colocalization of alpha granule marker PF4 and Alexa647 signal ([2]; merged confocal images, FIG. 2A)	absorbance of supernatant, complete versus loaded measurements (loading into platelets) (isolated platelets)	loading of attached cargo into platelets, loaded condition normalized to complete condition (isolated platelets)	relative affinity for HS, PAL2 versus PAL1 [1]	amount of cargos loaded into platelets (platelets)
CFL: control peptide, a charge-free ligand, SEQ ID NO: 14, negative control (EGGIWFPYGGF) [reference compound]	did not bind to HS	do not load into platelets	Co-localization was not observed	did not change	unable to direct loading of the cargo into platelets	–	–
RFRWPYRIREF (SEQ ID NO: 2) (also: Alexa647 label) [PAL2]	–	facilitates loading of an attached cargo into alpha granules of platelets	–	decrease in absorbance	facilitates loading of an attached cargo into platelets	greater affinity for HS than PAL′; also recorded: binds HS tighter than PALL	–
ERRIWFPYRRF (SEQ ID NO: 1) (also: Alexa647 label) [PAL1]	–	facilitates loading of an attached cargo into alpha granules of platelets	–	decrease in absorbance	facilitates loading of an attached cargo into platelets	–	–
Cc1cc(N)c2cc(NC(=O)Nc3ccc4nc(C)cc(N)c4c3)ccc2n1 [Surfen]	–	–	–	–	–	–	reduced amounts of cargos are loaded into platelets
